Experiments:
Assay type in all cases: cell-based
[1] = test system: methicillin resistant S. aureus (MRSA); assay: Raman marker peak height versus time in serum with MRSA (FIG. 6); details: representative traces 32 and 34, FIG. 6
Description: As described above, if the iron sequestration process is monitored via Raman spectroscopy, then the test involves the collection of a series of Raman spectra over time. A hypothetical depiction of this collection for a non-iron marker is depicted in FIG. 5. The individual Raman spectra comprise one or more peaks such as […], and 23 that, in the case of iron sequestration, are ascribed either to Fe-Tr (21 and 22) or to the apo-Tr and/or serum lipoproteins (23). The peak heights from one of the Fe-Tr peaks (for instance, 22) are monitored over time, as depicted in FIG. 5. If viable pathogens are present, and are sequestering iron to afford Fe-Tr, then the iron-transferrin peaks decrease over time, as depicted by traces 33 and 34 in FIG. 6. On the other hand, if viable pathogens are not present, or if viable pathogens are present in the assay together with an effective antimicrobial agent, then the peak heights are nearly invariant with time.
With reference to FIGS. 5 and 6, if the lycopene consumption is monitored via Raman spectroscopy as an indicator of metabolic activity, then the test involves the collection of a series of Raman spectra over time. A representative depiction of this collection is depicted in FIG. 5. […]

S. aureus = assay: Lycopene Raman peak (1516 cm^-1) slope versus time in inoculated serum, MIC estimate; details: S. aureus 10^5 cfu/mL; vancomycin 1, 5 and 20 μg/mL; FIG. 17
Method: FIGS. 17 & 18 illustrate the method by which a marker can be used to estimate the minimum inhibitory concentration MIC. FIG. 17 illustrates the Raman peak height at 1516 cm^−1 (which has been ascribed to lycopene) as a function of time for several samples. The samples include a serum sample that has been artificially inoculated with S. aureus to a concentration of 10^5 cfu/mL, and additional samples that also contain various concentrations of vancomycin (1, 5 and 20 μg/mL) as indicated in the legend.
FIG. 18 plots the slope of all the traces in FIG. 17, as a function of added vancomycin concentration. The dashed horizontal line corresponds to the slope of the sample without any added vancomycin, and the 3 data points correspond to vancomycin concentrations of 1, 5 and 20 μg/mL. The solid black line is a logarithmic fit of the 3 data points, and the MIC corresponds to the point at which the solid black line intersects the dashed line.

HL60 human cells = assay: Toxin detection: lycopene Raman peak in human serum, trypticase soy broth and HL60 cells; details: 4 μM, FIG. 24, 25
Description: FIG. 24 depicts the results of one toxin detection experiment. A control sample comprising human serum (centrifuged from the blood collected from a healthy volunteer) was combined with trypticase soy broth and HL60 human cells. […] FIG. 25 plots the normalized intensity for the 1516 cm^−1 peak as a function of time for the rhizoxin containing sample.

SMILES	effectiveness of dose by peak height versus time trace [1]	slope of lycopene 1516 cm^-1 peak intensity versus time (S. aureus)	lycopene peak height (1516 cm^-1) over time (HL60 human cells)
CC1(C)S[C@@H]2[C@H](NC(=O)[C@H](N)c3ccccc3)C(=O)N2[C@H]1C(=O)O [ampicillin]	ineffective dose	–	–
CN[C@H](CC(C)C)C(=O)N[C@H]1C(=O)N[C@@H](CC(N)=O)C(=O)N[C@H]2C(=O)N[C@H]3C(=O)N[C@H](C(=O)N[C@H](C(=O)O)c4cc(O)cc(O)c4-c4cc3ccc4O)[C@H](O)c3ccc(c(Cl)c3)Oc3cc2cc(c3O[C@@H]2O[C@H](CO)[C@@H](O)[C@H](O)[C@H]2O[C@H]2C[C@](C)(N)[C@H](O)[C@H](C)O2)Oc2ccc(cc2Cl)[C@H]1O [vancomycin]	effective dose	slope progressively decreases as more vancomycin is added	–
CO[C@@H](/C(C)=C/C=C/C(C)=C/c1coc(C)n1)[C@@H](C)[C@@H]1C[C@H](O)[C@@]2(C)O[C@@H]2/C=C/[C@@H](C)[C@H]2C[C@H](CC(=O)O2)C[C@@H]2O[C@H]2C(=O)O1 [rhizoxin]	–	–	increases significantly at first, followed by a steady decline

Source: patent publication US20130052636A1, “RAPID DETECTION OF METABOLIC ACTIVITY” (SPECTRAL PLATFORMS, INC., priority 2011, published 2013)
